The results in this text go back to patent US20070098761A1, “Processed fat composition for preventing/ameliorating lifestyle-related diseases” (priority 2003, published 2007).

A short description of this data set: Shelf stability test (accelerating test at 80° C.). The class given is physicochemical. The protocol: A shelf stability test of glabrene, glabridin, glabrol and 4′-O-methylglabridin in the above MCT solution was carried out as an accelerating test at 80° C. The MCT solution was kept at 80° C. in a water bath, and the contents of glabrene, glabridin, glabrol and 4′-O-methylglabridin were determined after storage for 1, 3 and 5 hours respectively. The shelf stability was expressed in terms of the ratio of the content after storage to the content before storage, assuming that the content of each compound before storage was 100%.
A shelf stability test of the hydrophobic licorice extract in Comparative Example 1 was carried out in an analogous manner.
A shelf stability test of the ethanol solution in Comparative Example 2 was carried out in an analogous manner.

The structures appear in SMILES notation. Where two headings read alike, the source gives them in different places.

On to `CC1(C)C=Cc2c(O)ccc(C3=Cc4ccc(O)cc4OC3)c2O1` [Compound 1, glabrene], for which the “Shelf stability (ratio of content after storage to content before storage)” value (0 h) is reported as 100%.

Take `CC1(C)C=Cc2c(ccc3c2OC[C@@H](c2ccc(O)cc2O)C3)O1` [Compound 2, glabridin]: the “Shelf stability (ratio of content after storage to content before storage)” value (Ethanol solution (Comparative Example 2), 80° C., after 1 hour) was 96%; the “Shelf stability (ratio of content after storage to content before storage)” value (Ethanol solution (Comparative Example 2), 80° C., after 3 hour) is on record as 94%; the “Shelf stability (ratio of content after storage to content before storage)” value (Ethanol solution (Comparative Example 2), 80° C., after 5 hour) was determined as 93%; the “Shelf stability (ratio of content after storage to content before storage)” value (Ethanol solution (Comparative Example 2), 80° C., at the time of start (set to 100%)) stood at 100%; the “Shelf stability (ratio of content after storage to content before storage)” value (Hydrophobic licorice extract (Comparative Example 1), 80° C., after 1 hour) stood at 91%; the “Shelf stability (ratio of content after storage to content before storage)” value (Hydrophobic licorice extract (Comparative Example 1), 80° C., after 3 hours) worked out at 88%. For the same compound, the “Shelf stability (ratio of content after storage to content before storage)” value is, setting by setting: (Hydrophobic licorice extract (Comparative Example 1), 80° C., after 5 hours) 86%; (Hydrophobic licorice extract (Comparative Example 1), 80° C., at the time of start (set to 100%)) 100%; (MCT solution (Example 1), 80° C., after 1 hour) 100%; (MCT solution (Example 1), 80° C., after 3 hours) 101%; (MCT solution (Example 1), 80° C., after 5 hours) 97%; (MCT solution (Example 1), 80° C., at the time of start (set to 100%)) 100%. The “Stability during storage (in words)” value (in the ethanol solution, 80° C.) is listed as “unstable” and the “Stability during storage (in words)” value (in the hydrophobic licorice extract, 80° C.) is “unstable”.

As for `CC(C)=CCc1cc([C@@H]2CC(=O)c3ccc(O)c(CC=C(C)C)c3O2)ccc1O` [Compound 3, glabrol], the “Stability during storage (in words)” value was “stable”. In addition, the “Shelf stability (ratio of content after storage to content before storage)” value (0 h) was 100%.

Take `COc1ccc([C@@H]2COc3c(ccc4c3C=CC(C)(C)O4)C2)c(O)c1` [Compound 4, 4′-O-methylglabridin]: the “Shelf stability (ratio of content after storage to content before storage)” value is listed as 100% and the “Stability during storage (in words)” value was “stable”.
